# Measurements as given in EP4578855A1, “PROLYL HYDROXYLASE INHIBITOR AND USE THEREOF” (Suzhong Pharmaceutical Group Co., Ltd., priority 2022, dated 2024).
# Where “and” joins values, the source holds several entries; their conditions need not be identical. Equal values may be shown once.
# Assays:
# [1] = system: EPO (erythropoietin); test: Pharmacological evaluation: influence of continuous administration on EPO level; format: in vivo, SD rats
# Procedure: This experiment was intended to evaluate an influence of continuous administration of the compounds prepared in Embodiments 12, 13 and 14 on EPO (erythropoietin) in SD rats.
# • Line: SD (Sprague Dawley) • Weeks of age and weight: 8 weeks, weight 200 g to 220 g • Sex: male • Animal source: Beijing Vital River Laboratory Animal Technology Co., Ltd.
# • Positive drug: Enarodustat • Description: commercialized drugs approved for marketing in Japan • Specification and content: 2 mg JTZ-951(Enarodustat), 140 capsules/box
# After a week of adaptive feeding, SD rats were randomly divided into 3 groups, 6 rats in each group, which were namely a blank group, a positive drug group (Enarodustat) and a group of compound in Embodiment 12. An Enarodustat tablet was crushed by a mortar, then quantitatively added with 0.5% methyl cellulose, and magnetically stirred and mixed evenly; and the compound prepared in Embodiment 12 was weighed, then quantitatively added with 0.5% methyl cellulose, and magnetically stirred and mixed evenly. […] The drug was given once a day for 14 consecutive days, and blood was taken to measure an EPO level 4 hours after the drug was given on the 14th day.
# [2] = system: human hepatocarcinoma cell line Hep3B; test: In-vitro erythropoietin (EPO)-inducing activity experiment (EPO ELISA, OD450); format: cell-based; conditions: Homo sapiens, Hep3B, 24 h, Hep3B cells, incubated 24 hours at 37°C
# Procedure: In-vitro erythropoietin (EPO)-inducing activities of the compounds in Embodiments 10 to 12 were evaluated by using a human hepatocarcinoma cell line Hep3B (ATCC). Hep3B cells were cultured in an EMEM medium (Eagle's Minimum Essential Medium) at 37°C in the presence of 10% fetal bovine serum (FBS). Experimental steps were as follows: • (1) Cell preparation: the cells were inoculated in a 96-well plate, and cell plating was carried out according to an amount of 100 µL per well based on 2*10~4 per well. • (2) Preparation of compound concentration gradient: 100 µM, 20 µM, 2-parallel well detection. A solution with 200 times final concentration was prepared in a 96-well plate, the compound was diluted 200/3 times by using a cell culture medium, and then 50 µL of the compound was sucked for drug administration to the cells. 50 µL of DMSO-containing culture solution was added into a negative control well to make a final concentration contain 5 ‰ DMSO, and 50 µL of positive compound with the highest concentration was added into a positive control well to incubate the cells at 37°C for 24 hours. • (3) The reaction plate was washed twice with 1X Wash Buffer according to about 400 µL per well. • (4) 100 µL of diluted standard (comprising a standard blank control) was added into an appropriate well. • (5) 50 µL of sample and 50 µL of Sample Diluent were added into a sample well. • (6) 50 µL of 1X Biotin Conjugated Antibody were added into all wells to incubate the cells at room temperature for 1 hour. • (7) The reaction plate was washed with 1X Wash Buffer for 6 times according to about 400 µL per well. • (8) 100 µL of 1X Streptavidin-HRP was added in to each well to incubate the cells at room temperature for 15 minutes. • (9) The reaction plate was washed with 1X Wash Buffer for 6 times according to about 400 µL per well. • (10) 100 µL of TMB Substrate Solution was added into each well to incubate the cells at room temperature for 10 minutes. • (11) 100 µL of Stop Solution was added into each well. • (12) OD450 was read by EnSight.
# The EPO-inducing activities of the compounds were expressed as the concentration for 50% of maximal effect (EC50).
# [3] = Pharmacokinetic evaluation after intravenous injection or intragastric administration, plasma LC-MS/MS; format: in vivo, SD rats
# Text: After the compounds were given to SD rats by intravenous injection or intragastric administration, concentrations of related compounds in plasma were detected by an LC-MS/MS method, and pharmacokinetics and absolute bioavailability of the compounds prepared in Embodiments 13 and 14 in the rats were preliminarily evaluated.
# 2. Line: Sprague Dawley rats, sex: male, weight: 200 g to 250 g
# Pharmacokinetic characteristics of rodents after intravenous injection and oral administration of the compounds were tested by a standard scheme. In the experiment, a candidate compound was prepared into a clear solution, and given to the rats by single intravenous injection and intragastric administration. A solvent for intravenous injection was a certain proportion of N,N-dimethylacetamide (DMA) and 10% Solutol HS15 solution, and a solvent for oral administration was a certain proportion of sodium carboxymethyl cellulose (CMC) suspension. 5 minutes, 15 minutes, 30 minutes, 1 hour, 2 hours, 4 hours, 6 hours, 8 hours, 10 hours and 24 hours after drug administration, blood samples of the animals were respectively collected into K2EDTA anticoagulation tubes, which were temporarily stored on ice until centrifugation.
# [4] = SD rats, in words, compared with Enarodustat in the table
structure (smiles),measurement,setting,value
"O=C(O)CNC(=O)c1c(O)cc(C2CCc3ccccc3C2)n2ncnc12 (single isomer, unassigned) [Compound in Embodiment 13, [(7-hydroxy-5-(1,2,3,4-tetrahydronaphthalene-2-yl)-[1,2,4]triazolo[1,5-a]pyridine-8-carbonyl)amino]acetic acid]",EPO levels in serum of the rats,"[1]; after 14 days of administration, in words",increased significantly
same,EPO levels in plasma of the rats,"[1]; after administration, compared with the group of positive drug Enarodustat, in words",significantly higher
same,EPO level after 14 days of administration,"[1]; individual rats 1-6, 0.3 mg/mL, 10 mL/kg, once a day for 14 consecutive days, blood 4 hours after the drug on the 14th day, 2904.6 pg/mL was an upper limit of measurement",≥ 2904.6 pg/mL (3×) and 2697.4 pg/mL and 2658.5 pg/mL and 2772.1 pg/mL
same,"EPO level after 14 days of administration, Mean","[1]; mean of 6 rats, 0.3 mg/mL, 10 mL/kg, once a day for 14 consecutive days, blood 4 hours after the drug on the 14th day, 2904.6 pg/mL was an upper limit of measurement",2807.0 pg/mL
same,EC50,[2],5.05 µM
same,half-lives,[3]; [4],obviously longer
same,in-vivo exposure,[3]; [4],higher
same,AUC,"[3]; male, Sprague-Dawley, rat, plasma, male SD rats, route and dose not given, read-out: Concentration integral AUC",19100 ng·h/mL
same,half-life,"[3]; male, Sprague-Dawley, rat, plasma, male SD rats, route and dose not given, read-out: Half-life period T1/2 (converted)",2.02 h
same,bioavailability,"[3]; male, Sprague-Dawley, rat, plasma, oral, male SD rats, intragastric vs intravenous, read-out: Bioavailability F",29.4%
